Experimental data published in patent US5075224A, “Prepro-LHRH C-terminal peptide DNA” (Genentech, Inc., priority 1991, dated 1991).
pEC50: −log10 of the molar value. Ends that are not written are not given here. Peptide text beside a SMILES is read from it.

System: Pituitary cells from female Sprague-Dawley rats
Assay: LH and FSH release from rat pituitary cell culture
Type: cell-based
Method: Pituitary cells from female Sprague-Dawley rats were established in cell culture by the method of K. Nikolics et al., "Peptides" 2: 65-73 (1981). 1 ml of about 1×10^-8 molar concentration of GAP or LHRH in medium 199 (a nutrient medium) was added to a four day pituitary cell culture per 5×10^5 cells. After 4 hours incubation at 37° C. in 5 percent CO2 /95 percent air the cell culture supernatant fluids were assayed for release of LH and FSH.
The anterior pituitary cell culture from female Sprague-Dawley rats was prepared as described in Example 6. In FIG. 7A the indicated concentrations of GAP (open circles, 10^-11 M; open squares, 3×10^-11 M; closed circles 10^-10 M; open squares, triangle 10^-8 M) were incubated with 5×10^5 cells/ml medium in 24-well culture plates for the indicated time. Media were assayed for PRL and values were expressed in terms of rPRL-RP-2 reference protein (National Pituitary and Hormone Program). The points are means ± standard deviation of four parallel culture wells of which duplicate samples were assayed by RIA. Basal levels were determined from eight parallel wells. The curves shown represent data obtained in three to five independent cell cultures.

[1] = 10^-8 M test sample, 4 hours incubation at 37° C., four day pituitary cell culture, supernatant

For `CC(C)C[C@H](NC(=O)[C@H](CC(=O)O)NC(=O)[C@H](CCCNC(=N)N)NC(=O)[C@H](CC(C)C)NC(=O)[C@@H]1CCCN1C(=O)[C@H](CO)NC(=O)[C@H](CCCNC(=N)N)NC(=O)[C@@H]1CCCN1C(=O)[C@H](CCC(N)=O)NC(=O)[C@H](Cc1c[nH]cn1)NC(=O)[C@@H](NC(=O)[C@@H](NC(=O)[C@@H](N)CS)[C@@H](C)O)[C@@H](C)O)C(=O)N[C@@H](CCCCN)C(=O)O` [CTP-core polypeptide of Example 4, NH2 -cys-thr-thr-his-gln-pro-arg-ser-pro-leu-arg-asp-leu-lys-COOH] (H-CTTHQPRSPLRDLK-OH), which “activity in LH and FSH release (in words)” value (rat pituitary cells) is on record?
Its value is “active in LH and FSH release, albeit at higher concentrations than required for GAP”.

For “DAENLIDSFQEIVKEVGQLAETQRFECTTHQPRSPLRDLKGALESLIEEETGQKKI [GAP]”, which “ED50 of stimulation of FSH secretion” value is on record?
The value was roughly 500 pM.

Which results are given for `CC(C)C[C@H](NC(=O)CNC(=O)[C@H](Cc1ccc(O)cc1)NC(=O)[C@H](CO)NC(=O)[C@H](Cc1c[nH]c2ccccc12)NC(=O)[C@H](Cc1c[nH]cn1)NC(=O)[C@@H]1CCC(=O)N1)C(=O)N[C@@H](CCCNC(=N)N)C(=O)N1CCC[C@H]1C(=O)NCC(N)=O` [LHRH]?
FSH (pg)/5 × 10^5 cells [1]: 11403 ± 350 pg/5 × 10^5 cells; LH (pg)/5 × 10^5 cells [1]: 30503 ± 3342 pg/5 × 10^5 cells; pEC50 (rat anterior pituitary cells, read-out: Half-maximal stimulation of LH release): 9.10
